From US9649389B2, “Substituted silaxanthenium red to near-infrared fluorochromes for in vitro and in vivo imaging and detection” (VisEn Medical, Inc., priority 2013, dated 2017)

Legend:
KB cells = assay: Cell uptake of glucosamine conjugated SX compound by fluorescence microscopy and flow cytometry; type: cell-based; details: 30 μM, 30 minutes
Description: This example illustrates cell uptake of a biomolecule (glucosamine) conjugated SX compound, compound 67 in KB cells. KB cells were cultured in media for 2 h then incubated with 30 μM of compound 67 for 30 minutes before analysis of the cells by fluorescence microscopy and flow cytometry with appropriate filter sets for the two different fluorescent dyes. As a control, cells were also incubated with the commercial fluorescent glucosamine derivative 2-NBDG also at 30 μM.

[1] = Optical properties of silaxanthenium fluorochromes (absorption/emission maxima, relative brightness); type: physicochemical; details: for Abs. λmax / Em. Λmax: 1×PBS, 1 cm square cuvette; for Relative Fluorescence: brightness (fluorescence intensity / absorption at λmax) normalized to CY1, 1×PBS
From the text: The relative brightness is defined by the fluorescence intensity of a solution of the fluorochrome in a 1 cm square cuvette when excited at its wavelength of maximum absorption divided by the absorption of the same sample at the wavelength of maximum absorption. The three examples shown with a S atom in the X position of Formula II are red shifted about 20 nm relative to three examples with the S atom in the Y or Z positions.
This example summarizes in Table 3 the absorption and emission characteristics of some exemplary silaxanthenium (SX) fluorochromes relative to a cell impermeable cyanine dye (sulfonated Cy5 analog) CY1. Absorption and emission characteristics were measured in 1×PBS in a 1 cm square cuvette. Relative fluorescence (brightness) was measured as in Example 8 and normalized to that of compound CY1.

[2] = In vivo tomographic imaging (FMT 2500) after intravenous injection; details: 2 nmoles intravenous, SKH-1 E female mice
Description: Two SKH-1 E female mice (9 weeks old) were injected with 2 nmoles of compound 44. Tomographic images of the whole body of the mouse were taken at 1, 15, 30 and 45 minutes and 1, 2 and 3 hours.

[3] = Absorption and emission maxima of two isomeric thienyl dyes; type: physicochemical
Description: (§1) Two isomeric thienyl Si-Rho dyes 88 and 89, were synthesized using the methods described previously. The two isomeric compounds, which are of identical molecular weight and molecular formula, have absorption and emission maxima of 652 nm and 668 nm (88) and 667 nm and 681 nm (89). Compounds were analyzed with two different filter sets by flow cytometry and also by fluorescence microscopy for cellular uptake and washout. Trypsin EDTA-detached 4T1 at 0.5 mil cells/mL culture medium were incubated with 1 uM 88 or 89 for 30 min at 37° C. Cells were washed 1× with PBS and analyzed by flow cytometry with a 705/70 nm emission filter for 88 and a 712/21 nm emission filter for 89 and by fluorescence microscopy.

4T1 cells = assay: Cellular uptake and washout by flow cytometry and fluorescence microscopy; type: cell-based; details: for cellular uptake: 1 uM, 30 min, 37° C.; for dye still remaining after washout: 1.5 h washout, flow cytometry
Description: as §1

chymotrypsin = assay: Fluorescence activation of internally quenched probe upon protease cleavage; type: biochemical; details: 1×PBS, 37° C., 4 h
From the text: FIG. 6A illustrates fluorescence activation upon enzyme cleavage of an internally quenched pair of silaxanthenium fluorochromes separated by an enzyme cleavable peptide sequence (Compound 78). Compound 78 was synthesized by conjugating two carboxylic acid dyes to lysine side chain amines in the peptide sequence using HATU and triethylamine. The quenched probe was purified by HPLC. Absorbance and fluorescence, measured on a Cary 50 UV-vis spectrophotometer (Varian) and a Cary Eclipse fluorescence spectrophotometer, respectively, of the quenched (dashed lines) and activated (cleaved by chymotrypsin in 1×PBS, solid lines) fluorochromes are shown in FIG. 6B.
A 22-fold increase in fluorescence intensity was observed. […] Trypsin EDTA-detached 4T1 were seeded in a 6-well tissue culture plate at 0.5 mil cells/2 mL of culture medium were incubated with 1 or 5 uM of 92, 93, or 91 for 21 h at 37° C. Cells were washed 1× with PBS, detached, and analyzed by FC and FLM (Cy5 filter). […] Trypsin EDTA-detached 4T1 cells were implanted 1.5 mil/site approximately 1 week prior to imaging. 92 was injected retro-orbitally at 4 nmol and imaged by FMT at 5 and 24 h.

| Compound | Abs. λmax [1] | Em. Λmax [1] | Relative Fluorescence [1] | also measured |
| --- | --- | --- | --- | --- |
| O=[N+]([O-])c1ccc(N[C@H]2C(O)O[C@H](CO)[C@@H](O)[C@@H]2O)c2nonc12 (stereo partly shown) [Compound 2-NBDG, reference compound] |  |  |  | cell uptake (KB cells): taken up by the cells; quantification of cell fluorescence by flow cytometry (KB cells): in normal analysis range |
| Cc1csc(C(=O)O)c1C1=C2C=CC(=[N+](C)C)C=C2[Si](C)(C)c2cc(N(C)C)ccc21 [Compound 17, 3,6-bis(dimethylamino)-9-(2-carboxy-4-methyl-thien-3-yl)-10,10-dimethyl-10-silaxanthenium chloride] | 649 nm | 666 nm | 1.11 |  |
| Cc1c(C2=C3C=CC(=[N+](C)C)C=C3[Si](C)(C)c3cc(N(C)C)ccc32)csc1C(=O)O [Compound 18, 3,6-bis(dimethylamino)-9-(2-carboxy-3-methyl-thien-4-yl)-10,10-dimethyl-10-silaxanthenium chloride] | 653 nm | 668 nm | 1.02 |  |
| Cc1cc(C(=O)O)ccc1C1=C2C=CC(=[N+]3CCCC3)C=C2[Si](C)(C)c2cc(N3CCCC3)ccc21 [Compound 44, 3,6-bis(pyrridolin-1-yl)-9-(2-methyl-4-carboxyphenyl)-10,10-dimethyl-10-silaxanthenium] | 655 nm | 669 nm | 1.54 | wash out of the untargeted compound [2]: ≤ 3 h; biodistribution by tomographic imaging ([2]; imaged 1 minute to 3 hours): Rapid accumulation of the fluorochrome compound can be seen in the heart region followed by slower accumulation to other areas of the body |
| Cc1cc(C(=O)O)ccc1C1=C2C=CC(=[N+]3CCOCC3)C=C2[Si](C)(C)c2cc(N3CCOCC3)ccc21 [Compound 45, 3,6-bis(morpholino)-9-(2-methyl-4-carboxyphenyl)-10,10-dimethyl-10-silaxanthenium] | 651 nm | 670 nm | 0.75 |  |
| CN(C)c1ccc2c(c1)[Si](C)(C)C1=CC(=[N+](C)C)C=CC1=C2c1ccc(C(=O)O)s1 [Compound 65, 3,6-bis(dimethylamino)-9-(2-carboxy-thien-5-yl)-10,10-dimethyl-10-silaxanthenium chloride] | 669 nm | 683 nm | 0.05 |  |
| Cc1c(C(=O)O)sc(C2=C3C=CC(=[N+](C)C)C=C3[Si](C)(C)c3cc(N(C)C)ccc32)c1Br [Compound 66] |  |  |  | red shift ([1]; relative to compound 17 (S moved from Z to X position, bromine substituent added)): 23 nm |
| Cc1cc(C(=O)N[C@@H]2[C@@H](O)[C@H](O)[C@@H](CO)O[C@@H]2O)ccc1C1=C2C=CC(=[N+]3CCCC3)C=C2[Si](C)(C)c2cc(N3CCCC3)ccc21 [Compound 67] |  |  |  | cell uptake (KB cells): taken up by the cells; quantification of cell fluorescence by flow cytometry (KB cells): detector saturation |
| Cc1ccccc1C1=C2C=CC(=[N+](C)C)C=C2[Si](C)(C)c2cc(N(C)C)ccc21 [Compound 77] | 650 nm | 666 nm | 1.20 |  |
| CN(C)c1ccc2c(c1)[Si](C)(C)c1cc(N(C)C)ccc1[C+]2c1ccsc1 [Compound 88] |  |  |  | absorption maximum [3]: 652 nm; emission maximum [3]: 668 nm; cellular uptake (4T1 cells): Significant uptake; dye still remaining after washout (4T1 cells): approximately one third |
| CN(C)c1ccc2c(c1)[Si](C)(C)c1cc(N(C)C)ccc1[C+]2c1cccs1 [Compound 89] |  |  |  | absorption maximum [3]: 667 nm; emission maximum [3]: 681 nm; cellular uptake (4T1 cells): Significant uptake; dye still remaining after washout (4T1 cells): approximately one third |
| CC(C)C[C@@H](NC(=O)[C@@H](Cc1ccccc1)NC(=O)CNC(=O)[C@@H](CCCCNC(=O)c1cc(C2=C3C=CC(=[N+](C)C)C=C3[Si](C)(C)c3cc(N(C)C)ccc32)c(C(=O)[O-])s1)NC(=O)CCC(=O)O)C(=O)NCC(=O)N[C@H](CCCCNC(=O)c1cc(C2=C3C=CC(=[N+](C)C)C=C3[Si](C)(C)c3cc(N(C)C)ccc32)c(C(=O)[O-])s1)C(N)=O [Compound 91] |  |  |  | increase in fluorescence intensity (chymotrypsin): 22 fold |
